Reference: patent publication US10683269B2 (MISSION THERAPEUTICS LIMITED, priority 2016, dated 2020)

Biological target: T1, USP7 (Homo sapiens, UniProt Q93009)
T1 construct: The USP7 construct was PCR amplified and cloned into a pFLAG-CMV-6a vector (Sigma-Aldrich) with an N-terminal FLAG tag; made in house; host or cells: HEK293T
Assay: USP7 biochemical IC50 assay (fluorescence polarisation, TAMRA labelled peptide linked to ubiquitin via an iso-peptide bond)
Settings: 30 min pre-incubation of enzyme and compound, read after 2 hr incubation at room temperature, read-out: IC50 range
Method in brief: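 Fluorescence polarisation at 540 nm excitation/590 nm emission, read immediately and after 2 hr at room temperature, following addition of 50 nM TAMRA-labelled iso-peptide ubiquitin substrate.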

T1 sequence (Q93009 whole entry): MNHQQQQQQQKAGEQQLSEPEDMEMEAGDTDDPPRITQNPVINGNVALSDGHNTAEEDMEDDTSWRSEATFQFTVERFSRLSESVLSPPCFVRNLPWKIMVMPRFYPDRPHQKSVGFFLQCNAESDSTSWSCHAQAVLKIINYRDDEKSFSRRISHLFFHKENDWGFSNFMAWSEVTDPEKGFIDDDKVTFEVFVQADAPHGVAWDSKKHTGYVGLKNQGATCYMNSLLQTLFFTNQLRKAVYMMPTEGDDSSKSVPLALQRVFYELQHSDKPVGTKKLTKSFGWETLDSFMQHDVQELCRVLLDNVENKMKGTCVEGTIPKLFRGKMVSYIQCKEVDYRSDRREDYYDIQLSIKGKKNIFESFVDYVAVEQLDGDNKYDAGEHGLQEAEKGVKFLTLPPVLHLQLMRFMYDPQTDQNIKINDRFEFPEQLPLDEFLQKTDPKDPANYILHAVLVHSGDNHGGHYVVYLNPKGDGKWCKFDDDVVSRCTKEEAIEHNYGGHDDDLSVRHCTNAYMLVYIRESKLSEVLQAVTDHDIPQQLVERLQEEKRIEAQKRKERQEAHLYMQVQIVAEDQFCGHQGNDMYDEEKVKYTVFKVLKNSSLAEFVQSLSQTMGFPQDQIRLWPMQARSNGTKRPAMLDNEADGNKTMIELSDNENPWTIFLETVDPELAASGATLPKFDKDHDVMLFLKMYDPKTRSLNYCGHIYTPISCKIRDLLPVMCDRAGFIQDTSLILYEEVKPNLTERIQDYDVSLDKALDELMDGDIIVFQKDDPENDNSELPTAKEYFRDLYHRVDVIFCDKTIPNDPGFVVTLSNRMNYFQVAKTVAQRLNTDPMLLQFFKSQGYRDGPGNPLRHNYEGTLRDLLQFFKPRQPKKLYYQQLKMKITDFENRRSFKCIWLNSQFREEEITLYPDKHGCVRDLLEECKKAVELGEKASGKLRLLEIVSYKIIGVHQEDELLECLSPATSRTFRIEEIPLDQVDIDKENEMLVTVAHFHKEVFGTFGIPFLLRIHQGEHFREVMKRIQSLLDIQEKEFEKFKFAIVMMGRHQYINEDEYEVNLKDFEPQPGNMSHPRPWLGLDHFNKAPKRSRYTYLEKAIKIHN

Compound	IC50 [µM]
N#CN1Cc2cccc(-c3ccccc3C(=O)NCCN)c2C1 [Example 77, N-(2-aminoethyl)-2-(2-cyanoisoindolin-4-yl)benzamide]	1 to 10
N#CN1Cc2cccc(-c3ccccc3C(=O)N3CCNCC3)c2C1 [Example 78, 4-(2-(piperazine-1-carbonyl)phenyl)isoindoline-2-carbonitrile]	1 to 10
N#CN1Cc2cccc(-c3ccnc(C(=O)NCc4ccccc4)c3)c2C1 [Example 79, N-benzyl-4-(2-cyanoisoindolin-4-yl)picolinamide]	1 to 10
N#CN1Cc2cccc(NC(=O)c3cccc(NC(=O)C4CC4)c3)c2C1 [Example 80, N-(2-cyanoisoindolin-4-yl)-3-(cyclopropanecarboxamido)benzamide]	1 to 10
N#CN1Cc2cccc(NC(=O)c3ccc(-c4cccnc4)cc3)c2C1 [Example 81, N-(2-cyanoisoindolin-4-yl)-4-(pyridin-3-yl)benzamide]	1 to 10
N#CN1Cc2cccc(NC(=O)c3ccc(-c4ccncc4)cc3)c2C1 [Example 82, N-(2-cyanoisoindolin-4-yl)-4-(pyridin-4-yl)benzamide]	1 to 10
Cc1ccccc1-c1cc(C(=O)Nc2cccc3c2CN(C#N)C3)[nH]n1 [Example 83, N-(2-cyanoisoindolin-4-yl)-3-(o-tolyl)-1H-pyrazole-5-carboxamide]	10 to 30
N#CN1Cc2cccc(NC(=O)c3csc(-c4ccccc4)n3)c2C1 [Example 84, N-(2-cyanoisoindolin-4-yl)-2-phenylthiazole-4-carboxamide]	10 to 30
COc1cc2cc(C(=O)Nc3cccc4c3CN(C#N)C4)[nH]c2cn1 [Example 85, N-(2-cyanoisoindolin-4-yl)-5-methoxy-1H-pyrrolo[2,3-c]pyridine-2-carboxamide]	1 to 10
N#CN1Cc2cccc(NC(=O)c3cc(-c4cnccn4)[nH]n3)c2C1 [Example 86, N-(2-cyanoisoindolin-4-yl)-5-(pyrazin-2-yl)-1H-pyrazole-3-carboxamide]	1 to 10
N#CN1Cc2cccc(NC(=O)c3ccc(=O)n(Cc4ccccc4)c3)c2C1 [Example 87, 1-benzyl-N-(2-cyanoisoindolin-4-yl)-6-oxo-1,6-dihydropyridine-3-carboxamide]	1 to 10
COCc1ccc(C(=O)Nc2cccc3c2CN(C#N)C3)cc1 [Example 88, N-(2-cyanoisoindolin-4-yl)-4-(methoxymethyl)benzamide]	10 to 30
COC(=O)Nc1cccc(C(=O)Nc2cccc3c2CN(C#N)C3)c1 [Example 89, methyl (3-((2-cyanoisoindolin-4-yl)carbamoyl)phenyl)carbamate]	1 to 10
N#CN1Cc2cccc(NC(=O)c3cccc(NC(=O)c4ccccc4)c3)c2C1 [Example 90, 3-benzamido-N-(2-cyanoisoindolin-4-yl)benzamide]	1 to 10
N#CN1Cc2cccc(NC(=O)c3ccc(CNC(=O)OCc4ccccc4)cc3)c2C1 [Example 91, benzyl (4-((2-cyanoisoindolin-4-yl)carbamoyl)benzyl carbamate]	1 to 10
N#CN1Cc2cccc(NC(=O)c3ccc(S(=O)(=O)Nc4ccccc4)cc3)c2C1 [Example 92, N-(2-cyanoisoindolin-4-yl)-4-(N-phenylsulfamoyl)benzamide]	1 to 10
N#CN1Cc2cccc(NC(=O)c3ccc(N4CCOCC4)s3)c2C1 [Example 93, N-(2-cyanoisoindolin-4-yl)-5-morpholinothiophene-2-carboxamide]	1 to 10
CN1CCC(C(=O)Nc2ccc3c(c2)CN(C#N)C3)C1 (centres unmarked) [Example 94, N-(2-cyanoisoindolin-5-yl)-1-methylpyrrolidine-3-carboxamide]	1 to 10
N#CN1Cc2cccc(C(=O)NCc3ccccc3)c2C1 [Example 95, N-benzyl-2-cyanoisoindoline-4-carboxamide]	10 to 30
CC(=O)Nc1ccc2c(c1-c1ccccc1)CN(C#N)C2 [Example 96, N-(2-cyano-4-phenylisoindolin-5-yl)acetamide]	1 to 10
Cn1cc(-c2nnc(-c3ccccc3)c3c2CN(C#N)C3)cn1 [Example 97, 1-(1-methyl-1H-pyrazol-4-yl)-4-phenyl-5,7-dihydro-6H-pyrrolo[3,4-c]pyridazine-6-carbonitrile]	10 to 30
COC(=O)c1cc2c(c(-c3ccccc3)c1)CN(C#N)C2 [Example 98, methyl 2-cyano-7-phenylisoindoline-5-carboxylate]	1 to 10

Compound	IC50 [µM]
N#CN1Cc2ncnc(N3CCN(c4ccc(F)cc4F)CC3)c2C1 [Example 99, 4-(4-(2,4-difluorophenyl)piperazin-1-yl)-5H-pyrrolo[3,4-d]pyrimidine-6(7H)-carbonitrile]	10 to 30
N#CN1Cc2ncnc(N3Cc4ccccc4C3)c2C1 [Example 100, 4-(isoindolin-2-yl)-5,7-dihydro-6H-pyrrolo[3,4-c]pyrimidine-6-carbonitrile]	1 to 10
N#CN1Cc2ncnc(N3CCC(Oc4cccnc4)CC3)c2C1 [Example 101, 4-(4-(pyridin-3-yloxy)piperidin-1-yl)-5,7-dihydro-6H-pyrrolo[3,4-c]pyrimidine-6-carbonitrile]	10 to 30
COc1cccc(OC2CCN(c3ncnc4c3CN(C#N)C4)CC2)c1 [Example 102, 4-(4-(3-methoxyphenoxy)piperidin-1-yl)-5,7-dihydro-6H-pyrrolo[3,4-d]pyrimidine-6-carbonitrile]	1 to 10
N#CN1Cc2ncnc(N3CCC(Oc4ccccc4C(N)=O)CC3)c2C1 [Example 103, 2-((1-(6-cyano-6,7-dihydro-5H-pyrrolo[3,4-d]pyrimidin-4-yl)piperidin-4-yl)oxy)benzamide]	10 to 30
CC(=O)Nc1nc2c(c(-c3ccccc3)n1)CN(C#N)C2 [Example 104, N-(6-cyano-4-phenyl-6,7-dihydro-5H-pyrrolo[3,4-c]pyrimidin-2-yl)acetamide]	1 to 10
CC(=O)Nc1nc2c(c(-c3cccc(C#N)c3)n1)CN(C#N)C2 [Example 105, N-(6-cyano-4-(3-cyanophenyl)-6,7-dihydro-5H-pyrrolo[3,4-c]pyrimidin-2-yl)acetamide]	1 to 10
CC(=O)Nc1nc2c(c(-c3cccc(OC(F)(F)F)c3)n1)CN(C#N)C2 [Example 106, N-(6-cyano-4-(3-(trifluoromethoxy)phenyl)-6,7-dihydro-5H-pyrrolo[3,4-d]pyrimidin-2-yl)acetamide]	1 to 10
CC(=O)Nc1nc2c(c(-c3cnn(C)c3)n1)CN(C#N)C2 [Example 107, N-(6-cyano-4-(1-methyl-1H-pyrazol-4-yl)-6,7-dihydro-5H-pyrrolo[3,4-d]pyrimidin-2-yl)acetamide]	10 to 30
CC(=O)Nc1cccc(-c2nc(NC(C)=O)nc3c2CN(C#N)C3)c1 [Example 108, N-(3-(2-acetamido-6-cyano-6,7-dihydro-5H-pyrrolo[3,4-d]pyrimidin-4-yl)phenyl)acetamide]	1 to 10
CC(=O)Nc1nc2c(c(-c3cccc(NS(C)(=O)=O)c3)n1)CN(C#N)C2 [Example 109, N-(6-cyano-4-(3-(methylsulfonamido)phenyl)-6,7-dihydro-5H-pyrrolo[3,4-d]pyrimidin-2-yl)acetamide]	1 to 10
N#CN1Cc2nc(N[C@H]3CC[C@H](O)CC3)nc(-c3ccccc3)c2C1 [Example 110, 2-(((1R,4R)-4-hydroxycyclohexyl)amino)-4-phenyl-5H-pyrrolo[3,4-d]pyrimidine-6(7H)-carbonitrile]	1 to 10
N#CN1Cc2nc(NCC3CCOCC3)nc(-c3ccccc3)c2C1 [Example 111, 4-phenyl-2-(((tetrahydro-2H-pyran-4-yl)methyl)amino)-5,7-dihydro-6H-pyrrolo[3,4-d]pyrimidine-6-carbonitrile]	1 to 10
Cn1cc(Nc2nc3c(c(-c4ccccc4)n2)CN(C#N)C3)cn1 [Example 112, 2-((1-methyl-1H-pyrazol-4-yl)amino)-4-phenyl-5,7-dihydro-6H-pyrrolo[3,4-d]pyrimidine-6-carbonitrile]	1 to 10
N#CN1Cc2nc(NCc3ncccn3)nc(-c3ccccc3)c2C1 [Example 113, 4-phenyl-2-((pyrimidin-2-ylmethyl)amino)-5,7-dihydro-6H-pyrrolo[3,4-d]pyrimidine-6-carbonitrile]	1 to 10
N#CN1Cc2nc(NCCc3ccccn3)nc(-c3ccccc3)c2C1 [Example 114, 4-phenyl-2-((2-(pyridin-2-yl)ethyl)amino)-5,7-dihydro-6H-pyrrolo[3,4-d]pyrimidine-6-carbonitrile]	1 to 10
N#CN1Cc2nc(NC3CCCc4ccccc43)nc(-c3ccccc3)c2C1 (centres unmarked) [Example 115, 4-phenyl-2-((1,2,3,4-tetrahydronaphthalen-1-yl)amino)-5,7-dihydro-6H-pyrrolo[3,4-d]pyrimidine-6-carbonitrile]	10 to 30
N#CN1Cc2nc(Nc3ccccc3)nc(-c3ccccc3)c2C1 [Example 116, 4-phenyl-2-(phenylamino)-5,7-dihydro-6H-pyrrolo[3,4-d]pyrimidine-6-carbonitrile]	1 to 10
N#CN1Cc2nc(NCc3ccccn3)nc(-c3ccccc3)c2C1 [Example 117, 4-phenyl-2-((pyridin-2-ylmethyl)amino)-5,7-dihydro-6H-pyrrolo[3,4-d]pyrimidine-6-carbonitrile]	1 to 10
N#CN1Cc2nc(NCc3cccnc3)nc(-c3ccccc3)c2C1 [Example 118, 4-phenyl-2-((pyridin-3-ylmethyl)amino)-5,7-dihydro-6H-pyrrolo[3,4-d]pyrimidine-6-carbonitrile]	1 to 10
N#CN1Cc2nc(NCc3cncs3)nc(-c3ccccc3)c2C1 [Example 119, 4-phenyl-2-((thiazol-5-ylmethyl)amino)-5,7-dihydro-6H-pyrrolo[3,4-d]pyrimidine-6-carbonitrile]	1 to 10
N#CN1Cc2nc(NCCO)nc(-c3ccccc3)c2C1 [Example 120, 2-((2-hydroxyethyl)amino)-4-phenyl-5,7-dihydro-6H-pyrrolo[3,4-d]pyrimidine-6-carbonitrile]	1 to 10
